Assay results taken from BindingDB's records for doi:10.1074/jbc.M113.518506 (Rudjer Boskovic Institute, 2013).

Columns and labels:
[1] = molecular target: T1, Solute carrier organic anion transporter family member (Danio rerio, UniProt A0A8M9PU70); assay: Oatp1d1 Transport Assay
T1 sequence (A0A8M9PU70 whole entry): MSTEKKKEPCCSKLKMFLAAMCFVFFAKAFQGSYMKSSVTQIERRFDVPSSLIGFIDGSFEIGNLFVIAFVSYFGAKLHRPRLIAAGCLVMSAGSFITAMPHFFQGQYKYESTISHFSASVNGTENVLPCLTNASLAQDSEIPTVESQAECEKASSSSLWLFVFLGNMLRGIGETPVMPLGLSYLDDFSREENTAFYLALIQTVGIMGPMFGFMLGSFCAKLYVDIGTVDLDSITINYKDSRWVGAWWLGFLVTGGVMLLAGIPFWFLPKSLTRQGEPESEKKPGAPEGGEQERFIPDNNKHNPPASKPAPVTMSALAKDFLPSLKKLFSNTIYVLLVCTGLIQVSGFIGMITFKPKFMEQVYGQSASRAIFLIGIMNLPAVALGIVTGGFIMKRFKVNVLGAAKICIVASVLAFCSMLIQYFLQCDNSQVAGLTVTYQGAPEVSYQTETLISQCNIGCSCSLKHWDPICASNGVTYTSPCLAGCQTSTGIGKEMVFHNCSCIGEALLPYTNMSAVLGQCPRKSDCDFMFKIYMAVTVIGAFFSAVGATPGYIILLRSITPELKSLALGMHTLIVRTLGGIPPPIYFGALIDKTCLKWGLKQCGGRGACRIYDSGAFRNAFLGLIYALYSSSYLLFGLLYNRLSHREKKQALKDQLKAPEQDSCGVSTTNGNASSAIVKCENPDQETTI
Protocol: (§1) In the inhibition experiments, the cells were preincubated for 20 s with test compounds, followed by a 5-min incubation with [3H]E3S (5 nM) or 30-min incubation with LY (5 μM).

[2] = molecular target: T2, Solute carrier organic anion transporter family member [3-691] (Zebrafish, UniProt A0A0R4IW35); assay: Oatp1d1 Transport Assay
T2 construct: 3-691
T2 sequence (A0A0R4IW35 whole entry): T1 sequence (A0A8M9PU70 whole entry)
Protocol: as §1

CCCN(CCC)S(=O)(=O)c1ccc(C(=O)O)cc1
Ki [1]: 26 µM

CC[C@H]1OC(=O)[C@H](C)[C@@H](O[C@H]2C[C@@](C)(OC)[C@@H](O)[C@H](C)O2)[C@H](C)[C@@H](O[C@@H]2O[C@H](C)C[C@H](N(C)C)[C@H]2O)[C@](C)(O)C[C@@H](C)C(=O)[C@H](C)[C@@H](O)[C@]1(C)O
Ki [1]: 882 µM

C[C@H](CCC(=O)NCCS(=O)(=O)O)[C@H]1CC[C@H]2[C@@H]3[C@H](O)C[C@@H]4C[C@H](O)CC[C@]4(C)[C@H]3CC[C@]12C
Ki [1]: 3.4 µM

CC(=O)[C@H]1CC[C@H]2[C@@H]3CCC4=CC(=O)CC[C@]4(C)[C@H]3CC[C@]12C
Ki [1]: 9.06 µM

CCOC(=O)C(C)(C)Oc1ccc(Cl)cc1 [2-(4-Chlorophenoxy)-2-methylpropanoic acid ethyl ester]
Ki [2]: 345 µM

CC(=O)C[C@H](c1ccccc1)c1c(O)c2ccccc2oc1=O [2-hydroxy-3-(3-oxo-1-phenylbutyl)-4H-chromen-4-one]
Ki [1]: 0.36 µM

Cc1ccc(C)c(OCCCC(C)(C)C(=O)O)c1 [5-(2,5-dimethylphenoxy)-2,2-dimethylpentanoic acid]
Ki [1]: 7.44 µM

C[C@]12C[C@H](O)[C@H]3[C@@H](CCC4=CC(=O)CC[C@@]43C)[C@@H]1CC[C@@H]2C(=O)CO [11beta,21-dihydroxypregn-4-ene-3,20-dione]
Ki [1]: 105 µM

C[C@]12CC[C@@H]3c4ccc(O)cc4CC[C@H]3[C@@H]1CC[C@@H]2O[C@@H]1O[C@H](C(=O)O)[C@@H](O)[C@H](O)[C@H]1O [17beta-Estradiol-17-(beta-D-glucuronide)]
Ki [1]: 3.26 µM

CC[C@H](C)C(=O)O[C@H]1C[C@H](O)C=C2C=C[C@H](C)[C@H](CC[C@@H](O)C[C@@H](O)CC(=O)O)[C@H]21 [(3R,5R)-7-[(1S,2S,6S,8S,8aR)-6-hydroxy-2-methyl-8-{[(2S)-2-methylbutanoyl]oxy}-1,2,6,7,8,8a-hexahydronaphthalen-1-yl]-3,5-dihydroxyheptanoic acid]
Ki [1]: 9.27 µM

C[C@]12CCC(=O)C=C1CC[C@@H]1[C@@H]2CC[C@]2(C)C(=O)CC[C@@H]12 [Androst-4-en-3,17-dione, 2]
Ki [1]: 3.78 µM

C=CC1=C(C)/C(=C/c2[nH]c(Cc3[nH]c(/C=C4\NC(=O)C(C)=C4C=C)c(C)c3CCC(=O)O)c(CCC(=O)O)c2C)NC1=O [BILIRUBIN]
Ki [1]: 14.5 µM

O=C1OC(c2ccc(O)c(S(=O)(=O)O)c2)(c2ccc(O)c(S(=O)(=O)O)c2)c2c(Br)c(Br)c(Br)c(Br)c21 [BROMOSULFOPHTHALEIN]
Ki [1]: 2.99 µM

CC(C)(Oc1ccc(CCNC(=O)c2ccc(Cl)cc2)cc1)C(=O)O [Cedur]
Ki [1]: 40.4 µM

C[C@H](CCC(=O)O)[C@H]1CC[C@H]2[C@@H]3[C@H](O)C[C@@H]4C[C@H](O)CC[C@]4(C)[C@H]3C[C@H](O)[C@]12C [Cholic Acid]
Ki [1]: 141 µM

C[C@]12CCC(=O)C[C@@H]1CC[C@@H]1[C@@H]2CC[C@]2(C)[C@@H](O)CC[C@@H]12 [DHT]
Ki [1]: 23.4 µM

CCCCC[C@H](O)/C=C/[C@H]1[C@H](O)CC(=O)[C@@H]1C/C=C\CCCC(=O)O [DINOPROSTONE]
Ki [1]: 227 µM

C[C@H](CCC(=O)O)[C@H]1CC[C@H]2[C@@H]3CC[C@@H]4C[C@H](O)CC[C@]4(C)[C@H]3C[C@H](O)[C@]12C [Deoxycholic Acid]
Ki [1]: 9.94 µM

C[C@]12CC[C@@H]3c4ccc(OS(=O)(=O)O)cc4CC[C@H]3[C@@H]1CCC2=O [Estrone Sulphate]
Ki [1]: 1.01 µM

CC(C)OC(=O)C(C)(C)Oc1ccc(C(=O)c2ccc(Cl)cc2)cc1 [Finofibrate]
Ki [1]: 54.4 µM

CN(Cc1cnc2nc(N)nc(N)c2n1)c1ccc(C(=O)N[C@@H](CCC(=O)O)C(=O)O)cc1 [MTX]
Ki [1]: 222 µM

CO[C@H]1/C=C/O[C@@]2(C)Oc3c(C)c(O)c4c(c3C2=O)C(=O)/C(=C/NN2CCN(C)CC2)C(=C4O)NC(=O)/C(C)=C\C=C\[C@H](C)[C@H](O)[C@@H](C)[C@@H](O)[C@@H](C)[C@H](OC(C)=O)[C@@H]1C [Rifampicin]
Ki [1]: 12.7 µM

C[C@]12CC[C@H]3[C@@H](CCC4=CC(=O)CC[C@@]43C)[C@@H]1CC[C@@H]2O [Testosterone, 1]
Ki [1]: 30 µM

C[C@]12CC[C@@H]3c4ccc(O)cc4CC[C@H]3[C@@H]1CC[C@@H]2O [[2,4,6,7-3H]-17beta-estradiol]
Ki [1]: 2.83 µM

C[C@]12CCC(=O)C=C1CC[C@@H]1[C@@H]2[C@@H](O)C[C@@]2(C)[C@H]1CC[C@]2(O)C(=O)CO [[3H]cortisol]
Ki [1]: 120 µM

N[C@@H](Cc1cc(I)c(Oc2ccc(O)c(I)c2)c(I)c1)C(=O)O [triothyrone]
Ki [1]: 42.7 µM
